In patent US11091522B2, “Peptidomimetic macrocycles and uses thereof” (priority 2018, dated 2021):

What was measured:
Caspase 3 = Caspase 3 detection assay in SJSA-1 cells; type: cell-based, human; conditions: SJSA-1 cells, 48 h, Caspase 3 activation over DMSO-treated cells
Description: One the day of the assay, the media was replaced with fresh RPMI-11% FBS assay media. […] Control wells contained no cells, and received 200 μL of the assay media.
The solutions were serially diluted 33.3 times using sterile water to provide a range of 10× working stock solutions. […] 20 μL of the 10× working stock solutions were added to the appropriate wells. Row H of the plates had control wells. Wells H1-H3 received 20 μL of the assay media. […] Wells H10-H12 received media and had no cells. […] Nutlin-3a was diluted using the same dilution scheme as the peptides.
10 μL of the 10× stock solutions were added to the appropriate wells to achieve the final concentrations in a total volume of 100 μL. […] 48 h after incubation, 80 μL of the media was aspirated from each well. 100 μL of Caspase 3/7Glo assay reagent was added to each well. […] Data were analyzed as Caspase 3 activation over DMSO-treated cells.

SJSA-1 cells = assay: Cell lysis by peptidomimetic macrocycles (LDH release); type: cell-based, human
Description: SJSA-1 cells were plated out one day in advance in clear, flat-bottom plates at a density of 7500 cells/well with 100 μL/well of growth media. Row H columns 10-12 were left empty to be treated with media alone. On the day of the assay, the media was exchanged with RPMI 1% FBS media to result in 90 μL of media per well. 10 mM stock solutions of the peptidomimetic macrocycles were prepared in 100% DMSO. The peptidomimetic macrocycles were diluted serially in 100% DMSO, and further diluted 20-fold in sterile water to prepare working stock solutions in 5% DMSO/water. The concentrations of the peptidomimetic macrocycles ranged from 500 μM to 62.5 μM.
10 μL of each compound solution was added to the 90 μL of SJSA-1 cells to yield final concentration of 50 μM to 6.25 μM in 0.5% DMSO-containing media. The negative control (non-lytic sample) was 0.5% of DMSO alone. The positive control (lytic) samples included 10 μM of Melittin and 1% Triton X-100. The cell plates were incubated for 1 h at 37° C. After incubation for 1 h, the morphology of the cells was examined by microscope. The plates were then centrifuged at 1200 rpm for 5 min at room temperature. 40 μL of the supernatant for each peptidomimetic macrocycle and control sample was transferred to clear assay plates. LDH release was measured using an LDH cytotoxicity assay kit.

[1] = Circular dichroism (CD) analysis of alpha-helicity; type: physicochemical; conditions: difference 50% TFE minus benign
Description: Peptide solutions were analyzed by CD spectroscopy using a spectropolarimeter. A temperature controller was used to maintain temperature control of the optical cell. Results are expressed as mean molar ellipticity [θ] (deg cm^2 dmol^−1) as calculated from the equation [θ]=θobs·MRW/10*l*c where θobs is the observed ellipticity in millidegrees, MRW is the mean residue weight of the peptide (peptide molecular weight/number of residues), 1 is the optical path length of the cell in centimeters, and c is the peptide concentration in mg/ml. Peptide concentrations were determined by amino acid analysis. Stock solutions of peptides were prepared in benign CD buffer (20 mM phosphoric acid, pH 2). The stock solutions were used to prepare peptide solutions of 0.05 mg/ml in either benign CD buffer or CD buffer with 50% trifluoroethanol (TFE) for analyses in a 10 mm path length cell. Variable wavelength measurements of peptide solutions were scanned at 4° C. from 195 to 250 nm, in 0.2 nm increments, and a scan rate 50 nm per minute. The average of six scans is reported.

MCF7 cells = type: cell-based, human; conditions: Homo sapiens
[2] = tested on: SJSA1 osteosarcoma cancer cells; assay: cells; conditions: Homo sapiens, SJSA-1, 120 h, read-out: IC50, cellular proliferation
[3] = Pharmacokinetics of AP1 and palbociclib in non-tumor-bearing nu/nu mice; conditions: nu/nu, mouse, plasma, po, 75 mg/kg, nu/nu mice; for AUC(0-t): AUClast
[4] = Alone, AP1 20 mg/kg or palbociclib 75 mg/kg alone
[5] = Co-administered, AP1 20 mg/kg with palbociclib 75 mg/kg

With `CSCC[C@H](NC(=O)[C@H](C)NC(=O)[C@H](C)NC(=O)[C@]1(C)CCCC=CCCCCCC[C@@](C)(NC(=O)[C@H](Cc2ccccc2)NC(=O)[C@@H](NC(=O)[C@H](CC(C)C)NC(C)=O)[C@@H](C)O)C(=O)N[C@@H](C)C(=O)N[C@@H](Cc2ccc(O)cc2)C(=O)N[C@@H](Cc2c[nH]c3ccccc23)C(=O)N[C@@H](C)C(=O)N[C@@H](C)C(=O)N[C@@H](CC(C)C)C(=O)N1)C(=O)N[C@H](C)C(N)=O` (single isomer, unassigned) [compound 72] the “caspase 0.3 μM” value (Caspase 3; 0.3 μM) was 1, the “caspase 3 μM” value (Caspase 3; 3 μM) was 1 and the “caspase 10 μM” value (Caspase 3; 10 μM) was 4. The “caspase 30 μM” value (Caspase 3; 30 μM) was 10, the “6.25 μM % Lysed cells (1 h LDH)” value (SJSA-1 cells; 6.25 μM) was 2% and the “25 μM % Lysed cells (1 h LDH)” value (SJSA-1 cells; 25 μM) was 0%. For the same compound, the “50 μM % Lysed cells (1 h LDH)” value (SJSA-1 cells; 50 μM) was 3%.

With `CCCC[C@H](NC(=O)[C@H](C)NC(=O)[C@H](C)NC(=O)[C@]1(C)CCC/C=C/CCCCCC[C@@](C)(NC(=O)[C@H](Cc2ccccc2)NC(=O)[C@@H](NC(=O)[C@H](CC(C)C)NC(C)=O)[C@@H](C)O)C(=O)N[C@@H](C)C(=O)N[C@@H](Cc2ccc(O)cc2)C(=O)N[C@@H](Cc2c[nH]c3ccccc23)C(=O)N[C@@H](C)C(=O)N[C@@H](CCC(N)=O)C(=O)N[C@@H](CC(C)C)C(=O)N1)C(=O)N[C@@H](C)C(N)=O` [compound 69] the “Molar Ellipticity TFE-Molar Ellipticity Benign” value [1] was −21407.1 deg cm^2 dmol^−1.

With `CC[C@H](C)[C@H](NC(=O)[C@H](C)NC(=O)[C@H](C)NC(=O)[C@]1(C)CCC/C=C/CCCCCC[C@@](C)(NC(=O)[C@H](Cc2ccccc2)NC(=O)[C@@H](NC(=O)[C@H](CC(C)C)NC(C)=O)[C@@H](C)O)C(=O)N[C@@H](C)C(=O)N[C@@H](Cc2ccc(O)cc2)C(=O)N[C@@H](Cc2c[nH]c3ccccc23)C(=O)N[C@@H](C)C(=O)N[C@@H](CCC(N)=O)C(=O)N[C@@H](CC(C)C)C(=O)N1)C(=O)N[C@H](C)C(N)=O` [compound 71] the “Molar Ellipticity TFE-Molar Ellipticity Benign” value [1] was −17835.9 deg cm^2 dmol^−1.

With `CC(=O)N[C@@H](CC(C)C)C(=O)N[C@H](C(=O)N[C@@H](Cc1ccccc1)C(=O)N[C@]1(C)CCCCCCC=CCCC[C@@](C)(C(=O)N[C@@H](C)C(=O)N[C@@H](C)C(=O)N[C@@H](C)C(=O)N[C@@H](C)C(=O)N[C@H](C)C(N)=O)NC(=O)[C@H](CC(C)C)NC(=O)[C@H](CCC(N)=O)NC(=O)[C@H](C)NC(=O)[C@H](Cc2c[nH]c3ccccc23)NC(=O)[C@H](Cc2ccc(O)cc2)NC(=O)[C@H](C)NC1=O)[C@@H](C)O` [compound 233] the “Molar Ellipticity TFE-Molar Ellipticity Benign” value [1] was −18554.7 deg cm^2 dmol^−1.

Compound `CC(=O)c1c(C)c2cnc(Nc3ccc(N4CCNCC4)cn3)nc2n(C2CCCC2)c1=O` [palbociclib] has an inhibition at 0.0003 µM (MCF7 cells) of -10%, an inhibition at 0.001 µM (MCF7 cells) of -19% and an inhibition at 0.003 µM (MCF7 cells) of -9.7%. For the same compound, the inhibition at 0.01 µM (MCF7 cells) was 6.6%, the inhibition at 0.03 µM (MCF7 cells) was 21.1% and the inhibition at 0.1 µM (MCF7 cells) was 40.9%. It also gave an inhibition at 0.3 µM (MCF7 cells) of 62.9%, an inhibition at 1 µM (MCF7 cells) of 78.9% and an inhibition at 3 µM (MCF7 cells) of 84%. For the same compound, the inhibition at 10 µM (MCF7 cells) was 84.3%, the inhibition at 30 µM (MCF7 cells) was 100% and the IC50 [2] was 60 nM. The AUC(0-t) [3, 4] was 37000 ng·h/mL, the AUC(0-t) [3, 5] was 29000 ng·h/mL and the Cmax [3, 4] was 2900 ng/mL. It also gave a Cmax [3, 5] of 2600 ng/mL.
